Measurements published in patent US8178704B2, “Inositol-phosphate derivatives and method of detecting inositol-1-phosphate” (CIS Bio International, priority 2004, dated 2012).
“Also recorded” adds a separate entry of the source.

Tests used:
[1] = test system: anti-IP1 antibody labeled with europium cryptate; test: HTRF test, specificity of the anti-IP1 antibodies (competition with IP1-CY5); type: binding; settings: competition with IP1-CY5 conjugate; FIG. 12
Protocol: All the solutions are prepared in 100 mM HEPES buffer pH 7 containing 0.1% BSA and 0.4 M KF.NB. 50 μl of solution of competitors are distributed into the wells of a black bottom microtiter plate so as to obtain the following final concentrations: myo-inositol (10 nM to 1 mM), IP1 Sigma (1 nM to 1 mM), IP2 (1 nM to 100 μM), IP3 (1 nM to 100 μM), PiP2 (1 nM to 100 μM). 50 μl of a 10 nM solution of IP1-CY5 conjugate of Example 10, 50 μl of a solution containing 1.5 nM of an anti-IP1 antibody labeled beforehand with europium cryptate are then distributed in the order indicated. Two wells are also distributed in which the 50 μl of competitors are replaced with 50 μl of buffer so as to constitute blanks (negative controls). The mixture is incubated for 2 h at 4° C. and a time-resolved fluorescence measurement is performed (td=50 μs, tg=400 μs) at 620 nm and 665 nm on a Rubystar® apparatus (BMG Labtech). The ΔF values are calculated using the blank values as reference. The percentages of inhibition obtained with the various competitors are then calculated with the delta F values taking, as 100% value, the signal obtained in the presence of an excess of the IP1 competitor.

[2] = test system: anti-IP1 antibodies; test: Specificity of the anti-IP1 antibodies evaluated by competition ELISA; type: binding, mouse; settings: competition with plate-bound IP1-biotin; competitors 1 nM to 100 μM (myo-inositol 10 nM to 1 mM)
Protocol: NUNC 96-well microtiter plates coated with streptavidin (13 pmol/well) are used. 100 μl of IP1-biotin conjugate prepared according to Example 9 at a concentration of 0.25 μg/ml are distributed and the mixture is incubated for 2 h 30 min at room temperature with stirring. The mixture is washed three times with water containing 0.1% Tween20. 50 μl of solutions of competitors are added so as to prepare the following final concentration ranges: myo-inositol (10 nM at 1 mM), IP1 Sigma (1 nM to 100 μM), IP2 (1 nM to 100 μM), IP3 (1 nM to 100 μM), PiP2 (1 nM to 100 μM) as well as 50 μl of culture supernatants secreting anti-IP1 antibodies. The mixture is incubated for 16 h at 4° C. and then washed three times with water containing 0.1% Tween20. 100 μl of conjugate anti-IgG (mouse)-peroxidase (Sigma # A 0168) diluted 1/60 000 in PBS 0.3% BSA are added. The mixture is incubated for 1 h at room temperature with stirring and then three washes are performed with 10 PBS 0.1% Tween20. 100 μl of TMB substrate (Sigma # T 8665) are distributed and the mixture is incubated for 30 min at room temperature with stirring and then 100 μl of stop reagent (Sigma # S5814) are distributed and the optical densities are measured at 450 nm.
The optical density at 450 nm is plotted against the logarithm of the concentration of compound whose competition it is desired to test. For all the compounds tested in competition, the maximum optical density OD450˜1.5 is observed at the lowest concentrations (1 nM).

[3] = test system: mGlu5 receptor; test: IP1 assay (TR-FRET) on HEK-293 cells expressing the mGlu5 receptor, effect of an inverse agonist; type: cell-based; settings: MPEP 5 nM to 100 μM, 1 hour; FIGS. 16A, 16B
Protocol: Incubation is performed for 1 hour at 37° C., 5% CO2.
When the constitutive activity of the mGluR5 receptor is blocked by the addition of MPEP, that will lead to a decrease in the production of intracellular IP1. […] This signal may be either the intensity ratio E665/E620 or the delta F.

[4] = biological target: T1, mGlu1 receptor (Homo sapiens, UniProt Q13255); test: IP1 assay (TR-FRET) on HEK-293 cells transiently expressing the mGlu1 receptor, effect of a positive allosteric modulator; type: cell-based; settings: Ro 01-6128 100 nM to 3 mM, 30 min; FIGS. 15A, 15B
T1 construct: expressed in transfected cells; host or cells: HEK-293 cells, transient, electroporation
T1 sequence (Q13255 19-1194): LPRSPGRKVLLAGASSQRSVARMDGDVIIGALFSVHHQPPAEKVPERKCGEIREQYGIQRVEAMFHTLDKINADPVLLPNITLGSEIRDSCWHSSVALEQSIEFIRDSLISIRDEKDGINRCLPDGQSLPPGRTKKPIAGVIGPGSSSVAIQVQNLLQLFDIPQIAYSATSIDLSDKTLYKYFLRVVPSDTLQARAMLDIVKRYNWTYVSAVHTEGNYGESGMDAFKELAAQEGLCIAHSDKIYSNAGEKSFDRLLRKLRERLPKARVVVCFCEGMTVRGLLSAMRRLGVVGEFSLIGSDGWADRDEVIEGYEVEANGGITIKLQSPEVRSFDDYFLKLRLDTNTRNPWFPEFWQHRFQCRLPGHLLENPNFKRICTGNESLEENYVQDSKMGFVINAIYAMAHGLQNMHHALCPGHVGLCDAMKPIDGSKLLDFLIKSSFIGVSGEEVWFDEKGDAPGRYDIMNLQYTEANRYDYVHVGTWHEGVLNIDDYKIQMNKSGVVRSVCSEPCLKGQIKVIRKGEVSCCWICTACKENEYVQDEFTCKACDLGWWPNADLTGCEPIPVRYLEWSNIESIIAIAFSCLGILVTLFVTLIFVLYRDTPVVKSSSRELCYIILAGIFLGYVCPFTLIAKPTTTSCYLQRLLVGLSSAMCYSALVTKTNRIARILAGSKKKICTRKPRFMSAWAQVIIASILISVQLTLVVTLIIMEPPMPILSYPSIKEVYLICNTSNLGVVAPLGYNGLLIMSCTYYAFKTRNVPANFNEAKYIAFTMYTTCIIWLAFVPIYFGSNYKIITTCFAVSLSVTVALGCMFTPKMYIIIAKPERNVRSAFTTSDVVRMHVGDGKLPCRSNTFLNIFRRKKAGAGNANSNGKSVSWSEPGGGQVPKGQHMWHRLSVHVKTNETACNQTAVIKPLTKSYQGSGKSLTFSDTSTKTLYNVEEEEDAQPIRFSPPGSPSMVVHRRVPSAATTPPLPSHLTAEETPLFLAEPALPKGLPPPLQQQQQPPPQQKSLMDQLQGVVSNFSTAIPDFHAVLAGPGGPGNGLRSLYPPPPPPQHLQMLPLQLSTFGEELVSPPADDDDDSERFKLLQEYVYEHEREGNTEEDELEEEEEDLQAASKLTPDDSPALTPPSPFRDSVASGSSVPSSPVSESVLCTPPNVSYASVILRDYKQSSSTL
Protocol: Incubation is performed for 3 h at 37° C., 5% CO2, saturated with moisture, before changing the medium for 100 μl of DMEM containing glutamax (glutamine not degradable to glutamate) and free of serum. Incubation is performed overnight at 37° C. in an incubator containing 5% CO2, saturated with moisture.
This signal may be either the intensity ratio E665/E620, or the delta F.

Row | Compound | decrease in the signal (optical density at 450 nm) caused by the competitor [2] | further results
1 | O=P(O)(O)OC1[C@H](O)[C@H](O)C(O)[C@H](O)[C@H]1O (stereo partly drawn) [IP1] | induces a reduction in the signal for concentrations below the micromolar range; also recorded: only the use of IP1 as competitor makes it possible to measure inhibition of the signal | inhibition of the signal by the competitor (HTRF, delta F) [1]: only the use of IP1 as competitor makes it possible to measure inhibition of the signal
2 | Cc1cccc(C#Cc2ccccc2)n1 [MPEP, 2-methyl-6-(phenylethynyl)pyridine] | – | TR-FRET signal (E665/E620 ratio or delta F) as a function of inverse agonist concentration [3]: the signal for the assay will increase as a function of the concentration of inverse agonist
3 | CCOC(=O)NC(=O)C(c1ccccc1)c1ccccc1 [PAM] | – | TR-FRET signal (E665/E620 ratio or delta F) as a function of PAM concentration [4]: the signal will decrease as a function of the PAM concentration
4 | O[C@H]1[C@H](O)[C@@H](O)[C@H](O)[C@@H](O)[C@H]1O [myo-inositol] | does not cause a decrease in the signal even at concentrations of 1 mM | –
5 | phosphatidylinositol 4,5-biphosphate [PIP2] | not recognized by the antibody | –
